Literature values, collected in patent US20060105063A1, “Synergic combination of compositions containing aloe vera isolates and their therapeutic application” (priority 2004, published 2006).

Columns and labels:
[1] = tested on: animals ingesting a diet composed of 20% Fucose

Question: With C[C@H](O)[C@@H](O)[C@@H](O)[C@H](O)C=O [Fucose] as the molecule, how does the “Oral dose considered safe” value (healthy 150-pound adult) read?
Answer: ≤ 34 grams

Question: What about the “Rate of excretion, mainly in the urine” value (humans) of the same molecule?
Answer: approximately 17 micrograms per minute

Question: What about the “Time to elimination from the bloodstream” value (oral, after maximum blood levels) of the same molecule?
Answer: eight to twelve

Question: And the “Microscopic examination of liver, kidney, pancreas and sternal bone marrow” value ([1]; Fucose-treated rats)?
Answer: no abnormalities

Question: What about the Oral toxicity ([1]; animals ingesting a diet composed of 20% Fucose) of the same molecule?
Answer: reduce nerve conduction velocity as well as collagen production
